Laboratory results taken from patent US20230406906A1, “SERPIN PEPTIDES AND METHODS OF USING THE SAME” (SERPIN PHARMA, LLC, priority 2022, published 2023).

Assays:
[1] = tested on: NFκB; assay: NFκB reporter assay (THP1-XBlue-MD2-CD14 cells, LPS, SEAP read-out); format: cell-based; details: peptide 50 μg/ml before LPS 5 ng/ml, overnight
Experimental: The reporter cells (THP1-XBlue-MD2-CD14 cells) were treated with each peptide (50 μg/ml) before being insulted with LPS (5 ng/ml) and incubated overnight. The NFκB inducible Secreted Embryonic Alkaline Phosphatase (SEAP) was measured in the supernatant and read for absorbance.

[2] = target: T1, LRP1 (Rattus norvegicus, UniProt G3V928); assay: Cell signaling analysis in PC12 cells (phospho-ERK1/2, phospho-Akt immunoblot); format: cell-based
T1 construct: host or cells: rat PC12 cells
Experimental: Cell signaling analysis: Rat PC12 cells were purchased from ATCC (CRL-1721). PC12 cells were maintained in high glucose DMEM (Gibco, USA) containing 10% heat-inactivated FBS (Gibco, USA), 5% HyClone heat-inactivated horse serum (Cytiva, USA), penicillin (100 units/ml) and streptomycin ([…]) in 6-well plates that were pre-coated with 0.01 mg/ml type IV collagen (Sigma-Aldrich, St. Louis, MO, USA). Cells were transferred to serum-free medium (SFM) 4 h prior to adding effectors, and then treated with SP163M (2.4, 24 or 240 nM); EI-tPA (12 nM), NGF (0.36 nM), or vehicle (PBS) for 10 min. In some cases, cells were pre-incubated with the competitive antagonist of LRP1, GST-RAP (150 nM) for 15 min or electroporated using the Rat Neuron Nucleofector Amaxa Kit (Lonza Biosciences) and incubated with siRNA to silence LRP1 expression (siLRP1; M-094191-01-0010, Dharmacon) for 48 h. Control cells were transfected with non-targeting control (NTC) siRNA (NTC; D-001810-10-05, Dharmacon). Cells were rinsed with ice-cold PBS and proteins were extracted in RIPA buffer (20 mM sodium phosphate, 150 mM NaCl, pH 7.4, 1% Triton X-100, 0.5% sodium deoxycholate, 0.1% SDS) supplemented with protease and phosphatase inhibitors (Roche Diagnostics, USA). After 30 min on ice, lysates were centrifuged at 15000×g for 5 min, supernatant collected and stored at −20° C. Equal amounts of protein from cell lysates (20 μg), as determined by BCA Protein Assay (ThermoFisher Scientific, Waltham, MA, USA), were subjected to 10% SDS-PAGE and electro-transferred to nitrocellulose membranes. The membranes were blocked with 5% nonfat dried milk and then incubated with primary anti-phospho-AKT (Cell Signaling Technology, Danvers, MA, USA; cat #9271S; 1:1000), anti-phospho-ERK1/2 (Cell Signaling Technology, Danvers, MA, USA; cat #9101S; 1:1000), anti-LRP1 (Cell Signaling Technology, Danvers, MA, USA; cat #64099S; 1:1000) or anti total-ERK1/2 (Cell Signaling Technology, Danvers, MA, USA; cat #91012S; 1:1000). Immunoblots were developed using Radiance, Radiance Q, and Radiance Plus chemiluminescent substrates and imaged using a BioRad ChemiDoc Imaging System (Bio-Rad, Hercules, CA, USA).

[3] = tested on: C57BL/6J mice; assay: Intraplantar capsaicin model of acute nociception; format: in vivo; details: male mice, 2 μg/g 1 h before capsaicin, 10 min
Experimental: For the capsaicin studies, male (n=41) and female (n=37) mice were acclimated to the behavior testing facility for at least 1 h. Capsaicin was dissolved in 20% (2-hydroxypropyl)-β-cyclodextrin (Sigma-Aldrich, St. Louis, MO, USA) solution. […] Subsequently, 10 μl of 2 μg/μl capsaicin solution was injected into the plantar area of left hind paw. Immediately after capsaicin injection, mice were placed in a plexiglass box. Two observers, blinded to treatments, recorded the time spent licking and flinching the left hind paw over 10 min.

[4] = tested on: STAT6; assay: IL-13 stimulated STAT6 phosphorylation in esophageal EPC2 cells (western blot); format: cell-based, Human; details: 30 minutes post IL-13 induction
Experimental: Esophageal EPC2 cells were treated with vehicle (ddw), A1AT or SP163M. Cells were collected at time-points indicated and western blot analysis of phospho-specific STAT6 was analyzed. […] Using CRISPER/CAS9 technology, an LRP1 knockout esophageal EPC2 cell line was created.

[5] = target: LRP1 (low-density lipoprotein receptor-related protein 1) on rat PC12 cells (rat) (UniProt G3V928); assay: cell-based or functional assay
[6] = tested on: NFκB; assay: NFκB reporter assay (THP1-XBlue-MD2-CD14 cells, LPS, SEAP read-out); format: cell-based; details: without LPS
[7] = tested on: mice; assay: MC903 AD-like inflammatory skin model, topical treatment (dermatitis score, ear volume, scratching); format: in vivo
Experimental: SP16 (in 70% ethanol) was applied topically to the ears on the days of the MC903 applications (MC903+SP16). Drug vehicle (70% EtOH) was applied to control animals (MC903) and normal control animals (NC) received EtOH in place of MC903. In-life parameters: Dermatitis score (FIG. 16A) and ear volume (FIG. 16B) measured on days 0, 3, 7, 9, 11 and 14. […] Clinical Dermatitis Score (score 0-4 for each parameter)—erythema, scale/dryness, edema, excoriation/erosion (total score 0-16).
(§1) Mice were treated with SP16 in 70% EtOH (MC903+SP16) or drug vehicle (MC903). Normal control (NC) mice were treated with EtOH only. Ears were measured for PAR2 protein expression through western blot analysis (quantitative analysis after normalization to beta-actin shown) (n=3-5). TSLP was measured in both the ears and serum by ELISA (N=3-5). Scratching was assessed over a 3 minute period after a 5-minute acclimatization period and the number of scratches are shown (n=3). IL-4 was measured in ear lysate via ELISA (N=3-5).

[8] = tested on: TSLP; assay: MC903 AD model, TSLP in ears and serum by ELISA; format: in vivo; details: topical, vs MC903 treated mice
Experimental: as §1

[9] = tested on: IL-4; assay: MC903 AD model, IL-4 in ear lysate via ELISA; format: in vivo, mice; details: topical
Experimental: as §1

[10] = tested on: PAR2; assay: MC903 AD model, PAR2 protein expression in ears (western blot); format: in vivo, mice; details: topical, normalized to beta-actin
Experimental: as §1

[11] = tested on: TSLP; assay: Poly I:C-induced TSLP production by SPINK7 knockout EPC2 cells (ELISA); format: cell-based, Human; details: SPINK7 knockout esophageal cells, Poly I:C 5 μg/ml, 8 hours
Experimental: FIG. 12A: Poly I:C-induced TSLP production by SPINK7 knockout EPC2 cells (Human esophageal epithelial cells). SPINK7 KO cells and control cells were plated in high calcium and high density, for 48 hours before being treated with SP16 or 7G and Poly I:C (5 μg/ml, or untreated) for 8 hours. TSLP production in the supernatant was measured by ELISA. FIG. 12B: primary esophageal epithelial cells (EPC2) were treated with SP16 and then stimulated with IL-13, a TH2 response mediated cytokine, to induce CCL26.
SP16 reduces several key cytokines involved in allergic responses. Upon knockout of SPINK7, esophageal epithelial cells release exacerbated levels of TSLP. TSLP is a key mediator of immune cell responses upon activation to an insult such as allergens.

[12] = tested on: CCL26; assay: CCL26 release by esophageal epithelial cells (EPC2); format: cell-based, Human
[13] = tested on: CCL24; assay: OVA-challenge allergic inflammation model, BALF CCL24 via ELISA; format: in vivo; details: treated during OVA challenge phase, sensitized mice
Experimental: (§2) Mice were subjected to the OVA-challenge allergic inflammation model and treated with vehicle or SP16 during the challenge phase. The bronchoalveolar lavage fluid (BALF) was analyzed for cytokines via ELISA.

[14] = tested on: IL-1a; assay: OVA-challenge allergic inflammation model, BALF IL-1a via ELISA; format: in vivo; details: treated during OVA challenge phase, sensitized mice
Experimental: as §2

[15] = tested on: IL-2; assay: OVA-challenge allergic inflammation model, BALF IL-2 via ELISA; format: in vivo; details: treated during OVA challenge phase, sensitized mice
Experimental: as §2

[16] = tested on: mice; assay: OVA-induced allergic inflammation model, eosinophils in BALF by flow cytometry; format: in vivo
Experimental: FIG. 15A: mice were subjected to the OVA-challenge allergic inflammation model and treated with vehicle, SP16, or A1AT during the challenge phase. The BALF was collected and analyzed for the percent of eosinophils and compared to saline (non-challenged) mice, vehicle OVA induced mice, or SP16 treated OVA induced mice.
The impact of SP16 treatment on eosinophilic infiltration in mice was assessed using the OVA-induced allergic inflammation model. The number of eosinophils in the bronchoalveolar lavage fluid was quantified by flow cytometry.

T1 sequence (G3V928 20-3944 limits assumed): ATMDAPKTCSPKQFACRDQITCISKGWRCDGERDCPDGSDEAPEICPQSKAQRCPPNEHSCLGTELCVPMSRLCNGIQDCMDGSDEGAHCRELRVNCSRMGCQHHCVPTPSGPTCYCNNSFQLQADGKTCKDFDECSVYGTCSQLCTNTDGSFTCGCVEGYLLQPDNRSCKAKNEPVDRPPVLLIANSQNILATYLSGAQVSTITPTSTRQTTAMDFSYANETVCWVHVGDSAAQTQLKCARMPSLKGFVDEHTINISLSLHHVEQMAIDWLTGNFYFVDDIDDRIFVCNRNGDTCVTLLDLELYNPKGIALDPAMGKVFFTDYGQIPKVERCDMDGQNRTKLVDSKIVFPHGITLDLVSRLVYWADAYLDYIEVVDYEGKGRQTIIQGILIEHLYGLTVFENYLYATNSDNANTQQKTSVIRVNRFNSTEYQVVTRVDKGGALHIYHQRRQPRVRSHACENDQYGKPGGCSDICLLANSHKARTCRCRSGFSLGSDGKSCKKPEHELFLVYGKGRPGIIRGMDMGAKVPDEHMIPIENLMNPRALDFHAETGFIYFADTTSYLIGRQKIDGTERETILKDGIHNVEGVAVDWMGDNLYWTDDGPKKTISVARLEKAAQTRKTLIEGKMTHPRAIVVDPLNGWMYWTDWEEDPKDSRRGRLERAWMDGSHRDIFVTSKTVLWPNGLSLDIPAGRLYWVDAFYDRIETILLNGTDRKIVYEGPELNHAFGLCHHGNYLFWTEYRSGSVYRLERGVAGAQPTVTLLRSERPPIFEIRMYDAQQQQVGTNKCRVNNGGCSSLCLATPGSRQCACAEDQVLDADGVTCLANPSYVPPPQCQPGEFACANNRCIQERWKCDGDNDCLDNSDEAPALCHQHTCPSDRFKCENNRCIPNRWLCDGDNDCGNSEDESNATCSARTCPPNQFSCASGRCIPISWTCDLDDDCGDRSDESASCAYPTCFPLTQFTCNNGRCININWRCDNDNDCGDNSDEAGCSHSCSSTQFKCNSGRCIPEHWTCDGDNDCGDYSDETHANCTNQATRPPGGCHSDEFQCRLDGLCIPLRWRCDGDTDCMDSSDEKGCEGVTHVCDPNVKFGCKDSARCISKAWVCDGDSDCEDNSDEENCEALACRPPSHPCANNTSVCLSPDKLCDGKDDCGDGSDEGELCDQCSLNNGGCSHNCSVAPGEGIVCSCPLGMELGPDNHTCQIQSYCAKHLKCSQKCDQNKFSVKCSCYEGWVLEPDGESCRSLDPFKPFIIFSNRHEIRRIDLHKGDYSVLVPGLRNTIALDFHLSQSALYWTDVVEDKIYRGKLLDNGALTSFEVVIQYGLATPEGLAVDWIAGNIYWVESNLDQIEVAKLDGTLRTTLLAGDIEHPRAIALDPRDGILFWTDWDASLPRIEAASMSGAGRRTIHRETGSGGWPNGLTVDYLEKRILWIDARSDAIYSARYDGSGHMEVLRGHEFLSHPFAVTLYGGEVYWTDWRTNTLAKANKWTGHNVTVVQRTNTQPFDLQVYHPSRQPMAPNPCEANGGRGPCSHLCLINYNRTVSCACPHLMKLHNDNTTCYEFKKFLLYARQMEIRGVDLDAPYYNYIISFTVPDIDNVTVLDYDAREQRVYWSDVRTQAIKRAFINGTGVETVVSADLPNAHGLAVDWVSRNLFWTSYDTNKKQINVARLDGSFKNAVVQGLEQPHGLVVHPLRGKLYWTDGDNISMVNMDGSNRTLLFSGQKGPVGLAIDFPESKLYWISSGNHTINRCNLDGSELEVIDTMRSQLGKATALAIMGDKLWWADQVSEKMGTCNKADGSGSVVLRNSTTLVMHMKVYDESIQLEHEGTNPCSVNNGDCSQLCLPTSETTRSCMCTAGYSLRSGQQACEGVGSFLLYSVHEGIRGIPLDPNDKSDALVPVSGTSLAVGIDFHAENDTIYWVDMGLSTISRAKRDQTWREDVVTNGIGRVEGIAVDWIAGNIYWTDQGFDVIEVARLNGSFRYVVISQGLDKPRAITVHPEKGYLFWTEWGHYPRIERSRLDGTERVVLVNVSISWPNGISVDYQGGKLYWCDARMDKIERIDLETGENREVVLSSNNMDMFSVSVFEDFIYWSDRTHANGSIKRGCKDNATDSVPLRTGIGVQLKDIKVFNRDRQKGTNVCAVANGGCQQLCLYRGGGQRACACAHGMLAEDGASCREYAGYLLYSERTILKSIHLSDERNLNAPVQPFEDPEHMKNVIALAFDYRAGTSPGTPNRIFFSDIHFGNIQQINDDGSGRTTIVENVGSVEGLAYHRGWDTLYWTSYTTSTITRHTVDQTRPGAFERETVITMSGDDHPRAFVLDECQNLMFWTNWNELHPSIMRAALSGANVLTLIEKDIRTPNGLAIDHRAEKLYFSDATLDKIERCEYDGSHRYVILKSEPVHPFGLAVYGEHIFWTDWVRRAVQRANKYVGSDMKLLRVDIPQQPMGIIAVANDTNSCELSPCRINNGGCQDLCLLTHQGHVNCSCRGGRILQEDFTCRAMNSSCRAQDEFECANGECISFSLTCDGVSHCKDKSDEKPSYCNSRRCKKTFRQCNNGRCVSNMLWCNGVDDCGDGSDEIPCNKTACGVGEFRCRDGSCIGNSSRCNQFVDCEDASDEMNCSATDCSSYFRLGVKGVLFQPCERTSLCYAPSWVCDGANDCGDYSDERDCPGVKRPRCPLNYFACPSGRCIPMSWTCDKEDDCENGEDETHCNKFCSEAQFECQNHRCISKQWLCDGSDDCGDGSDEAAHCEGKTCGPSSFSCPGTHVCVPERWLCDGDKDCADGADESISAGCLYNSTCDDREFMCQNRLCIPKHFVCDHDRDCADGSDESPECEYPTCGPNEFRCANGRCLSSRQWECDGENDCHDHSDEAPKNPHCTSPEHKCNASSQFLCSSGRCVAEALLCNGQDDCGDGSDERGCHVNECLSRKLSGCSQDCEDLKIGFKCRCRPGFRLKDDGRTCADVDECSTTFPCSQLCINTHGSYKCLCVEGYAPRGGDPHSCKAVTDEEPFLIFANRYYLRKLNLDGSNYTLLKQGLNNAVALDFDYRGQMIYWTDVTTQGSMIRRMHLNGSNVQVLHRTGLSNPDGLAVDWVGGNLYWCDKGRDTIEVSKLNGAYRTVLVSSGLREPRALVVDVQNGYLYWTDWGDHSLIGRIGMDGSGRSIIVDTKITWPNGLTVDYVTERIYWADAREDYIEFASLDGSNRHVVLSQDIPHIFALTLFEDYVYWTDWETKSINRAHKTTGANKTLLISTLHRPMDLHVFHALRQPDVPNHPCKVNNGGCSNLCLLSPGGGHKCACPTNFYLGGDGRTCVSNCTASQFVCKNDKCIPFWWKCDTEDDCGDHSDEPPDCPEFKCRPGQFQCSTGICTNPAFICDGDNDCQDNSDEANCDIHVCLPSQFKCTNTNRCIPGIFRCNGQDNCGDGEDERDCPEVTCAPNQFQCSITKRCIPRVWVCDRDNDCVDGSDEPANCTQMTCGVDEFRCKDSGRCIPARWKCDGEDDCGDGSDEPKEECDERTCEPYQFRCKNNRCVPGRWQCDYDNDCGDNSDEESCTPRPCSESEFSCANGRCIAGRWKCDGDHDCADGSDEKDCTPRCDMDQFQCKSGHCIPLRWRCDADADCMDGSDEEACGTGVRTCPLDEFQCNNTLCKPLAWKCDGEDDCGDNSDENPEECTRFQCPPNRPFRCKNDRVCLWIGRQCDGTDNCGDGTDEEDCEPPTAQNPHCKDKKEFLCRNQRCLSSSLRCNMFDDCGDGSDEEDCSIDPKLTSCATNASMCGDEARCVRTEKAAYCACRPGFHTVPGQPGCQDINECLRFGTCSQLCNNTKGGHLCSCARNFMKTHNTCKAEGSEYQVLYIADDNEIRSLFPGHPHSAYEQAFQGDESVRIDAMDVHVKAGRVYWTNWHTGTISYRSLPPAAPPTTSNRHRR
T1 sequence (G3V928 3945-4545 partner limits assumed): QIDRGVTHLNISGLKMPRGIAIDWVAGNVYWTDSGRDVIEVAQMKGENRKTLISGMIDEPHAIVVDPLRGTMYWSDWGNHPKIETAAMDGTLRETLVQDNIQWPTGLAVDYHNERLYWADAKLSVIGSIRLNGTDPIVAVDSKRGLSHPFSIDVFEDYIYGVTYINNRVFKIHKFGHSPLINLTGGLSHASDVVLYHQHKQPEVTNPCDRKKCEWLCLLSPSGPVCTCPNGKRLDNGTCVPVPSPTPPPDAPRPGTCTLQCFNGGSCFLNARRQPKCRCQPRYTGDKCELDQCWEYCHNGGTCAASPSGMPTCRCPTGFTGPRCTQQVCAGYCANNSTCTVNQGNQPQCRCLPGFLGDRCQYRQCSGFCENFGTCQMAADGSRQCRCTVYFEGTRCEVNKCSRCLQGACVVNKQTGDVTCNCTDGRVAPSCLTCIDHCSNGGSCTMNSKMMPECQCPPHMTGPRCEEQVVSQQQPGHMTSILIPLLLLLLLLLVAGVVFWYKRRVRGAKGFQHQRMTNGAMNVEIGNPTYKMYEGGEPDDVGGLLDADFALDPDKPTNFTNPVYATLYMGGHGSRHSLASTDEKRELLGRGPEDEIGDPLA

## V K F N K P F V F L M (VKFNKPFVFLM) [SP20]
[1]
  NFκB activity (NFκB inducible SEAP in supernatant): did not have an inhibitory effect

## EI-tPA: Recombinant human EI-tPA, derivative of tissue-type plasminogen activator, known LRP1 agonist [reference compound]
[2]; 48 h after transfection
  activation of ERK1/2 in cells transfected with LRP1-specific siRNA: ERK1/2 was not activated
  activation of ERK1/2 in cells transfected with NTC siRNA: also robustly activated ERK1/2
[3]
  capsaicin induced acute pain-related behavior (time spent licking): blocked the capsaicin induced acute pain-related behavior

## A1AT: alpha-1 antitrypsin, the prototypical SERPIN
[4]
  STAT6 phosphorylation: STAT6 was phosphorylated in vehicle and A1AT treated cells

## NGF: NGF-β purchased from Sigma, cell signaling control [reference compound]
[2]; 0.36 nM, 10 min
  activation of ERK1/2 (cell signaling control): also activated ERK1/2

## RRRVKFNKPFVFLMIEQNTKRRR (RRRVKFNKPFVFLMIEQNTKRRR) [SP21]
[1]
  NFκB activity (NFκB inducible SEAP in supernatant): NFkB inhibition increased as well relative to SP16

## R R R V R F N R P F L R R R (RRRVRFNRPFLRRR) [SP32]
[1]
  NFκB activity (NFκB inducible SEAP in supernatant): could not be restored with the poly arginine flanks

## Receptor associated protein expressed as a glutathione-S-transferase fusion protein (GST-RAP)
[5]
  block of SP163M-induced phospho-Akt and phospho-ERK1/2 in PC12 cells (immunoblot); concentration of RAP used: 150 nM

## FPKMVPQFNTELKIFPEVNIK (FPKMVPQFNTELKIFPEVNIK) [SP34, reference compound]
[1]
  NFκB activity (NFκB inducible SEAP in supernatant): neither the scrambled core control peptide nor the AAT 0-36 fragment decreased the NFκB activity

## V R F N R P F L (VRFNRPFL) [SP31]
[1]
  NFκB activity (NFκB inducible SEAP in supernatant): the anti-inflammatory activity of the peptide was lost

## SIPPEVKFNKPFVFLMIEQNTKSPLFMGKVVNP (SIPPEVKFNKPFVFLMIEQNTKSPLFMGKVVNP; SP16 peptide core sequence including the LRP1 binding site; listed as Homo sapiens) [SP8, reference compound]
[1]
  NFκB activity (NFκB inducible SEAP in supernatant): neither the scrambled core control peptide nor the AAT 0-36 fragment decreased the NFκB activity
[6]
  NFkB induction by the peptide alone: showed NFkB inducible properties without the need for LPS

## V K F N K P F V F L M I E Q N T K (VKFNKPFVFLMIEQNTK; SP16 peptide core sequence including the LRP1 binding site; listed as Homo sapiens)
[1]
  NFκB activity (NFκB inducible SEAP in supernatant): capable of reducing NFκB activity
[2]; 240 nM, 0-30 min
  activation of ERK1/2 over time: robustly activated ERK1/2 from 5 to 30 min
[2]; 10 min
  lowest concentration activating phospho-ERK1/2: 24 nM
[2]; 48 h after transfection
  activation of ERK1/2 in cells transfected with NTC siRNA: ERK1/2 was robustly activated
[7]; topical solution (1%) in 70% ethanol, 14-day period, vs vehicle
  disease improvement (dermatitis score, ear volume): a significant improvement in disease vs. vehicle-treated mice
[7]; topical, vs vehicle (MC903) treated mice
  pruritis (number of scratches): significantly reduces pruritis compared to vehicle (MC903) treated mice
[8]
  systemic (serum) and local (ear) TSLP: a significant reduction in systemic (serum) and local (ear) TSLP compared to MC903 treated mice
[9]
  IL-4 release in the skin tissue: significantly reduced in SP16-treated animals
[10]
  PAR2 protein expression in ears: PAR2 and TSLP inhibition
[11]
  Poly I:C mediated TSLP release: effective in significantly reducing Poly I:C mediated TSLP and CCL26 release
[12]; EPC2 cells stimulated with IL-13
  CCL26 release: significantly reduced CCL26 release dose dependently
[12]; SPINK7 knockout esophageal cells
  Poly I:C mediated CCL26 release: effective in significantly reducing Poly I:C mediated TSLP and CCL26 release
[13]
  CCL24 in BALF: significantly reduces CCL24 following OVA-challenge in sensitized mice
[14]
  IL-1a in BALF: significantly reduces IL-1a following OVA-challenge in sensitized mice
[15]
  IL-2 in BALF: significantly reduces IL-2 following OVA-challenge in sensitized mice
[16]
  eosinophil infiltration into the lungs (BALF): significantly (p=0.04) reduces eosinophil infiltration into the lungs

## R R R V K F N K P F V F L M R R R (RRRVKFNKPFVFLMRRR) [SP22]
[1]
  NFκB activity (NFκB inducible SEAP in supernatant): the NFκB activity was significantly reduced
